In US8114583B2, “Switch-region: target and method for inhibition of bacterial RNA polymerase” (priority 2005, dated 2012):
Values joined by “and” are separate entries in the source; they are usually repeats but may differ in a detail not shown here. Equal entries are not always repeated.

Legend:
[1] = tested on: Escherichia coli with substitutions in RNAP β′ subunit (rpoC) or β subunit (rpoB); test: MIC ratio (MIC mutant/MIC wild-type) of resistant rpoC/rpoB mutants; type: cell-based
From the text: To identify determinants for function of Myx, Applicant has performed random mutagenesis of genes encoding Escherichia coli RNAP β′ subunit (rpoC) and β subunit (rpoB), and has isolated and sequenced five independent Myx-resistant mutants (methods as described in Mukhopadhyay, et al. (2004) Mol. Cell. 14, 739-751).
To further define determinants for function of Myx, Applicant has performed saturation mutagenesis of genes encoding Escherichia coli RNAP β′ subunit (rpoC) and β subunit (rpoB), and has isolated and sequenced more than 100 independent Myx-resistant mutants (methods as described in Mukhopadhyay, et al. (2004) Mol. Cell. 14, 739-751; Tuske, et al. […] Cell 122, 541-552). Saturation mutagenesis was performed using a set of “doped” oligodeoxyribonucleotide primers targeting all codons for residues located within 30 Å of β′ residue 345 and β residues 1275 and 1292 in the three-dimensional structure of bacterial RNAP (primer sequences in Table 2). […]

[2] = tested on: Escherichia coli DH21tolC; test: bacteriocidal activity; type: cell-based; settings: unpublished data
[3] = target: T. thermophilus RNAP holoenzyme (Thermus thermophilus, UniProt Q8RQE8+Q8RQE9); test: inhibition of T. thermophilus RNAP holoenzyme; type: biochemical; settings: unpublished data; read-out: K, inhibition of T. thermophilus RNAP holoenzyme
Escherichia coli RNAP = Escherichia coli RNAP (Escherichia coli, UniProt P0A8T7+P0A8V2); type: biochemical
From the text: (A) DNA construct SEQ ID NO:133. (B) Data.
(A) DNA construct SEQ ID NO:134. (B) Data.
Applicant has performed transcription and DNA-binding experiments in order to define the basic mechanism of transcription inhibition by Myx (methods as in Mukhopadhyay, et al. (2004) Mol. Cell. 14, 739-751).
Applicant has performed DNA binding experiments with a series of subfragments of promoter DNA in order to map the interaction of RNAP with promoter DNA inhibited by Myx (methods as in Mukhopadhyay, et al. (2004) Mol. Cell. 14, 739-751). […] This DNA segment corresponds, precisely, to the DNA segment proposed to bind within the RNAP active-center cleft, and to be affected by clamp opening and closing, in structural models of transcription initiation complexes (see Ebright (2000) J. Mol. Biol. 304, 687-698; Murakami, et al. (2003) Curr. Opin. Stuct. Biol. 12, 89-97; Borukhov & Nudler (2003) Curr. Opin. Microbiol. 6, 93-100; Murakami, et al. (2002) Science 296, 1285-1290; Naryshkin, et al. (2000) Cell 101, 601-611; Mekler, et al. (2002) Cell 108, 599-614).

[4] = target: wild-type Escherichia coli RNAP and [Arg345]β′-RNAP (Escherichia coli, UniProt P0A8T7+P0A8V2, K345R); settings: [Arg345]β′-RNAP versus wild-type RNAP; FIG. 7
Bacillus subtilis = settings: cited from earlier work
B. megaterium = settings: cited from earlier work
Micrococcus luteus = settings: cited from earlier work
Enterococcus faecium = settings: cited from earlier work
Enterobacter cloacae = settings: cited from earlier work
[5] = tested on: Corynebacterium mediolanum; settings: cited from earlier work
Mycobacterium smegmatis = settings: cited from earlier work
Pseudomonas aeruginosa = settings: cited from earlier work
bacterial RNAP = bacterial RNAP (Escherichia coli, UniProt P0A8T7+P0A8V2); settings: read-out: Ki, inhibition of bacterial RNAP; cited from earlier work
eukaryotic RNAP II = settings: cited from earlier work
mice = settings: at concentrations up to 100 mg/kg; cited from earlier work
Staphylococcus aureus = settings: cited from earlier work
[6] = tested on: Escherichia coli DH21tolC; settings: cited from earlier work

SMILES: CCC/C(C)=C/C=C(\C)C(=O)c1c(O)cc([C@H](C)CC/C=C/NC(=O)OC)oc1=O [Myx, myxopyronin]
- MIC ratio (MIC, mutant/MIC, wild-type) ([1]; rpoB 1255 Thr→Ile): 2
- MIC ratio (MIC, mutant/MIC, wild-type) ([1]; rpoB 1275 Val→Met): >32
- MIC ratio (MIC, mutant/MIC, wild-type) ([1]; rpoB 1275 Val→Phe): >32
- MIC ratio (MIC, mutant/MIC, wild-type) ([1]; rpoB 1278 Leu→Val): 2
- MIC ratio (MIC, mutant/MIC, wild-type) ([1]; rpoB 1279 Glu→Gly): 32
- MIC ratio (MIC, mutant/MIC, wild-type) ([1]; rpoB 1279 Glu→Lys): >32
- MIC ratio (MIC, mutant/MIC, wild-type) ([1]; rpoB 1283 Ala→Val): 2
- MIC ratio (MIC, mutant/MIC, wild-type) ([1]; rpoB 1285 Tyr→Asp): 2
- MIC ratio (MIC, mutant/MIC, wild-type) ([1]; rpoB 1291 Leu→Phe): 2
- MIC ratio (MIC, mutant/MIC, wild-type) ([1]; rpoB 1298 Val→Leu): 4 and 2
- MIC ratio (MIC, mutant/MIC, wild-type) ([1]; rpoB 1315 Met→Leu): 2
- MIC ratio (MIC, mutant/MIC, wild-type) ([1]; rpoB 1317 Pro→Leu): 2
- MIC ratio (MIC, mutant/MIC, wild-type) ([1]; rpoB 1320 Pro→Ala): 2
- MIC ratio (MIC, mutant/MIC, wild-type) ([1]; rpoB 1322 Ser→Pro): 32
- MIC ratio (MIC, mutant/MIC, wild-type) ([1]; rpoB 1322 Ser→Thr): 2
- MIC ratio (MIC, mutant/MIC, wild-type) ([1]; rpoB 1322 Ser→Tyr): 2
- MIC ratio (MIC, mutant/MIC, wild-type) ([1]; rpoB 1322 Ser→Val): 16
- MIC ratio (MIC, mutant/MIC, wild-type) ([1]; rpoB 1325 Val→Leu): 2
- MIC ratio (MIC, mutant/MIC, wild-type) ([1]; rpoB 1326 Leu→Trp): 1
- MIC ratio (MIC, mutant/MIC, wild-type) ([1]; rpoC 345 Lys→Arg): >32
- MIC ratio (MIC, mutant/MIC, wild-type) ([1]; rpoC 345 Lys→Asn): 32
- MIC ratio (MIC, mutant/MIC, wild-type) ([1]; rpoC 345 Lys→Thr): 32
- MIC ratio (MIC, mutant/MIC, wild-type) ([1]; rpoC 1346 Gly→Asp): 1
- MIC ratio (MIC, mutant/MIC, wild-type) ([1]; rpoC 1351 Val→Phe): >32
- MIC ratio (MIC, mutant/MIC, wild-type) ([1]; rpoC 1352 Ile→Asn): 2
- MIC ratio (MIC, mutant/MIC, wild-type) ([1]; rpoC 1352 Ile→Ser): 2
- MIC ratio (MIC, mutant/MIC, wild-type) ([1]; rpoC 1354 Gly→Cys): 2
- bacteriocidal or not [2]: bacteriocidal
- Ki [3]: 20 µM
- interaction of RNAP with promoter DNA (Escherichia coli RNAP): preventing stable interaction
- interaction of RNAP with promoter DNA segment comprising positions −40 to −12 (Escherichia coli RNAP): does not inhibit
- interaction of RNAP with segment of promoter DNA comprising positions −11 to +15 (Escherichia coli RNAP): inhibits
- effect of substitution within the switch-region sequence on binding of Myx to RNAP [4]: reduces binding
- MIC (Bacillus subtilis): ≤ 10 mg/L
- MIC (B. megaterium): ≤ 10 mg/L
- MIC (Micrococcus luteus): ≤ 10 mg/L
- MIC (Enterococcus faecium): ≤ 10 mg/L
- MIC (Enterobacter cloacae): ≤ 10 mg/L
- MIC [5]: ≤ 10 mg/L
- MIC (Mycobacterium smegmatis): ≤ 10 mg/L
- MIC (Pseudomonas aeruginosa): ≤ 10 mg/L
- Ki (bacterial RNAP): 1 µM
- inhibition of eukaryotic RNAP II (eukaryotic RNAP II): does not inhibit
- acute toxicity in mice (mice): no acute toxicity

SMILES: C/C(=C\Cc1ccccc1)CCC(=O)C[C@H]1C[C@H](O)C/C(C)=C/C/C=C/C/C(CC(=O)O)=C\C(=O)O1 [Rip, ripostatin]
- MIC ratio (MIC, mutant/MIC, wild-type) ([1]; rpoB 1255 Thr→Ile): 4
- MIC ratio (MIC, mutant/MIC, wild-type) ([1]; rpoB 1275 Val→Met): 8
- MIC ratio (MIC, mutant/MIC, wild-type) ([1]; rpoB 1275 Val→Phe): >16
- MIC ratio (MIC, mutant/MIC, wild-type) ([1]; rpoB 1278 Leu→Val): >16
- MIC ratio (MIC, mutant/MIC, wild-type) ([1]; rpoB 1279 Glu→Gly): >16
- MIC ratio (MIC, mutant/MIC, wild-type) ([1]; rpoB 1279 Glu→Lys): 4
- MIC ratio (MIC, mutant/MIC, wild-type) ([1]; rpoB 1283 Ala→Val): 4
- MIC ratio (MIC, mutant/MIC, wild-type) ([1]; rpoB 1285 Tyr→Asp): 4
- MIC ratio (MIC, mutant/MIC, wild-type) ([1]; rpoB 1291 Leu→Phe): 4
- MIC ratio (MIC, mutant/MIC, wild-type) ([1]; rpoB 1298 Val→Leu): 4
- MIC ratio (MIC, mutant/MIC, wild-type) ([1]; rpoB 1315 Met→Leu): 4
- MIC ratio (MIC, mutant/MIC, wild-type) ([1]; rpoB 1317 Pro→Leu): 2
- MIC ratio (MIC, mutant/MIC, wild-type) ([1]; rpoB 1320 Pro→Ala): 4
- MIC ratio (MIC, mutant/MIC, wild-type) ([1]; rpoB 1322 Ser→Pro): >16
- MIC ratio (MIC, mutant/MIC, wild-type) ([1]; rpoB 1322 Ser→Thr): 4
- MIC ratio (MIC, mutant/MIC, wild-type) ([1]; rpoB 1322 Ser→Tyr): 2
- MIC ratio (MIC, mutant/MIC, wild-type) ([1]; rpoB 1322 Ser→Val): >16
- MIC ratio (MIC, mutant/MIC, wild-type) ([1]; rpoB 1325 Val→Leu): 4
- MIC ratio (MIC, mutant/MIC, wild-type) ([1]; rpoB 1326 Leu→Trp): >16
- MIC ratio (MIC, mutant/MIC, wild-type) ([1]; rpoC 345 Lys→Arg): >16
- MIC ratio (MIC, mutant/MIC, wild-type) ([1]; rpoC 345 Lys→Asn): 8
- MIC ratio (MIC, mutant/MIC, wild-type) ([1]; rpoC 345 Lys→Thr): >16
- MIC ratio (MIC, mutant/MIC, wild-type) ([1]; rpoC 1346 Gly→Asp): 4
- MIC ratio (MIC, mutant/MIC, wild-type) ([1]; rpoC 1351 Val→Phe): >16
- MIC ratio (MIC, mutant/MIC, wild-type) ([1]; rpoC 1352 Ile→Asn): >16
- MIC ratio (MIC, mutant/MIC, wild-type) ([1]; rpoC 1352 Ile→Ser): >16
- MIC ratio (MIC, mutant/MIC, wild-type) ([1]; rpoC 1354 Gly→Cys): 4
- bacteriocidal or not [2]: bacteriocidal
- effects on transcription, promoter binding, and promoter-subfragment binding (Escherichia coli RNAP; results not shown): same mechanism as Myx
- MIC (Staphylococcus aureus): ≤ 1 mg/L
- MIC [6]: ≤ 1 mg/L
- Ki (bacterial RNAP): 0.3 µM
- inhibition of eukaryotic RNAP II (eukaryotic RNAP II): does not inhibit
